Source: ChEMBL document CHEMBL4118122, “Identification and biological evaluation of thiazole-based inverse agonists of RORγt” (Bioorg Med Chem Lett, 2018)

Columns and labels:
Histamine H1 receptor = Histamine H1 receptor (Homo sapiens, UniProt P35367); experiment: Displacement of [3H]pyrilamine from human recombinant histamine H1 receptor at 1 uM after 60 mins by scintillation counting analysis relative to control
[1] = biological target: Delta-type opioid receptor (Homo sapiens, UniProt P41143); experiment: Displacement of [3H]DADLE from human recombinant delta opioid receptor at 1 uM after 60 mins by scintillation counting analysis relative to control
[2] = biological target: 5-hydroxytryptamine receptor 2B (Homo sapiens, UniProt P41595); experiment: Displacement of [125I]+/-DOI from human recombinant 5-HT2B receptor after 60 mins by scintillation counting analysis
B2 bradykinin receptor = B2 bradykinin receptor (Homo sapiens, UniProt P30411); experiment: Displacement of [3H]bradykinin from human recombinant B2 receptor after 60 mins by scintillation counting analysis
Chain of B2 bradykinin receptor (P30411 whole entry): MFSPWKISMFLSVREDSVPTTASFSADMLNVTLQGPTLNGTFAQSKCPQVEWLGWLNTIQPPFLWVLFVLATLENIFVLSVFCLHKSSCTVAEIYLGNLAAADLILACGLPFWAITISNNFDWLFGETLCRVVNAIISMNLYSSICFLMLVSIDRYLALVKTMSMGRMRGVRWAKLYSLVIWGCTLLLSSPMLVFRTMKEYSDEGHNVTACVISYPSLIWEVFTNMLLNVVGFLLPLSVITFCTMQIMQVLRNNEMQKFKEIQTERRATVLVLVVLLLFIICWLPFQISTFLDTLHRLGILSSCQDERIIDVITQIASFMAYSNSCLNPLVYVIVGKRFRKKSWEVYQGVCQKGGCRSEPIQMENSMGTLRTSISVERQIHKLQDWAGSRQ

[3] = biological target: 5-hydroxytryptamine receptor 1A (Homo sapiens) (UniProt P08908); experiment: Displacement of [3H]8-OH-DPAT from recombinant human 5-HT1A receptor at 1 uM after 60 mins by scintillation counting analysis relative to control
Chain of 5-hydroxytryptamine receptor 1A (Homo sapiens) (P08908 whole entry): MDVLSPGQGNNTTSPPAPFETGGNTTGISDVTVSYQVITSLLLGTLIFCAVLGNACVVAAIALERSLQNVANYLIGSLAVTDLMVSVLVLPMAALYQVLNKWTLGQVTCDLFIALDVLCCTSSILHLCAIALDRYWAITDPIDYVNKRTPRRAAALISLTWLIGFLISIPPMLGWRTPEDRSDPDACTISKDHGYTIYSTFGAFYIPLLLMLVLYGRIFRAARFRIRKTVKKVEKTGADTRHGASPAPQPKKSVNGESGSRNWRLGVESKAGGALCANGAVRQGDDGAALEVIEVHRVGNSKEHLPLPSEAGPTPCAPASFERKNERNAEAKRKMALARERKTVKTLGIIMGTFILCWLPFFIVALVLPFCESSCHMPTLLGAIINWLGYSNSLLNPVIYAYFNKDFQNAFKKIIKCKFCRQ

[4] = biological target: 5-hydroxytryptamine receptor 5A (Homo sapiens, UniProt P47898); experiment: Displacement of [3H]LSD from human recombinant 5-HT5a receptor at 10 uM after 120 mins by scintillation counting analysis relative to control
Chain of 5-hydroxytryptamine receptor 5A (P47898 whole entry): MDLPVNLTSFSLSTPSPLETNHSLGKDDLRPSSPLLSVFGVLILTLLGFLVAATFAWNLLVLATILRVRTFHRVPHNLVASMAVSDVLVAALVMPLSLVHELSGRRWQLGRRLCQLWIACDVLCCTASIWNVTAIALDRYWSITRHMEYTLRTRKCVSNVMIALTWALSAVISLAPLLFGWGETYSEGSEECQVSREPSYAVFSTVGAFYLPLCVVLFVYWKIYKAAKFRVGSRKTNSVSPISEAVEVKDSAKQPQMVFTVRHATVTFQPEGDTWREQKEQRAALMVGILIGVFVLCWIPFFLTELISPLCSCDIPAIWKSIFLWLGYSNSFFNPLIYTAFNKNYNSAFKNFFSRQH

[5] = biological target: 5-hydroxytryptamine receptor 1B (Rattus norvegicus, UniProt P28564); experiment: Displacement of [125I]-CYP from rat brain 5-HT1B receptor after 120 mins by scintillation counting analysis
Chain of 5-hydroxytryptamine receptor 1B (P28564 whole entry): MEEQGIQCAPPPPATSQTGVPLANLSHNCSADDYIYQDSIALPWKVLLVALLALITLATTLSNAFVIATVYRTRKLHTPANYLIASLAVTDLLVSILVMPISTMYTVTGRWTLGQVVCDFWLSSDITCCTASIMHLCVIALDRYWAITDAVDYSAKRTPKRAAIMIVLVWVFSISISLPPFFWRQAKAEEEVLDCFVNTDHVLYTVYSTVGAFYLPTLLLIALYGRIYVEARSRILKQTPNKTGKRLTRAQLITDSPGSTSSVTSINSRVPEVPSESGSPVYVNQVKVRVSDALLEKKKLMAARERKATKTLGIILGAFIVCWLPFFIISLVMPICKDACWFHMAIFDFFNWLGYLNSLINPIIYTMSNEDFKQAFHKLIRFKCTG

[6] = biological target: Calcium/calmodulin-dependent protein kinase type II subunit beta (Homo sapiens) (UniProt Q13554); experiment: Inhibition of recombinant full length His-tagged human CaMK2beta expressed in baculovirus expression system at 10 uM in presence of ATP relative to control
Chain of Calcium/calmodulin-dependent protein kinase type II subunit beta (Homo sapiens) (Q13554 whole entry, the tested form may be a part): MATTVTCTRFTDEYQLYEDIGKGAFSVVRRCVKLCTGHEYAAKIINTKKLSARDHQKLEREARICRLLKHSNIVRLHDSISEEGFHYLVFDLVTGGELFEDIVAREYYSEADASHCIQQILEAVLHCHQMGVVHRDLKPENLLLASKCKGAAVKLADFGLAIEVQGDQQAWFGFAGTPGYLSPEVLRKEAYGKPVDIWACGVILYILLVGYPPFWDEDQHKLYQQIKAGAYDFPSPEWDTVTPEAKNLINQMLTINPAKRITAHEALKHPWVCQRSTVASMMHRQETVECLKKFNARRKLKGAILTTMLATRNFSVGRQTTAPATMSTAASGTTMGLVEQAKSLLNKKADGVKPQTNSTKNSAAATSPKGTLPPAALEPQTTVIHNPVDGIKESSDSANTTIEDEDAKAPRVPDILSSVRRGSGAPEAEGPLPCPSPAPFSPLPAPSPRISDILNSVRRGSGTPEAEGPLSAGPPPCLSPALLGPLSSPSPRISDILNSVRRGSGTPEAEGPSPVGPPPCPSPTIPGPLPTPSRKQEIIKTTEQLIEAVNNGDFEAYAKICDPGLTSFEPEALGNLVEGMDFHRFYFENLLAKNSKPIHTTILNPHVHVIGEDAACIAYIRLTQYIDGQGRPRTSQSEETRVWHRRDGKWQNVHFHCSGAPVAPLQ

[7] = biological target: Proto-oncogene tyrosine-protein kinase receptor Ret (Homo sapiens) (UniProt P07949); experiment: Inhibition of recombinant GST-tagged human RET cytoplasmic domain (658 to 1114 residues) expressed in baculovirus expression system at 10 uM in presence of ATP relative to control
[8] = biological target: 5-hydroxytryptamine receptor 1B (Rattus norvegicus) (UniProt P28564); experiment: Displacement of [125I]-CYP from rat brain 5-HT1B receptor at 10 uM after 120 mins by scintillation counting analysis relative to control
Chain of 5-hydroxytryptamine receptor 1B (Rattus norvegicus) (P28564 whole entry): as the sequence (P28564 whole entry) above

[9] = biological target: Adrenergic receptor alpha-2 (Rattus norvegicus) (UniProt P22086+P19328+P22909); experiment: Displacement of [3H]-RX 821002 from rat alpha2 adrenoceptor at 1 uM after 60 mins by scintillation counting analysis relative to control; assay type: protein assay
[10] = biological target: Type-1 angiotensin II receptor (Homo sapiens, UniProt P30556); experiment: Displacement of [125I][Sar1,Ile8]-AT-II from human recombinant AT1 receptor after 120 mins by scintillation counting analysis
Chain of Type-1 angiotensin II receptor (P30556 whole entry): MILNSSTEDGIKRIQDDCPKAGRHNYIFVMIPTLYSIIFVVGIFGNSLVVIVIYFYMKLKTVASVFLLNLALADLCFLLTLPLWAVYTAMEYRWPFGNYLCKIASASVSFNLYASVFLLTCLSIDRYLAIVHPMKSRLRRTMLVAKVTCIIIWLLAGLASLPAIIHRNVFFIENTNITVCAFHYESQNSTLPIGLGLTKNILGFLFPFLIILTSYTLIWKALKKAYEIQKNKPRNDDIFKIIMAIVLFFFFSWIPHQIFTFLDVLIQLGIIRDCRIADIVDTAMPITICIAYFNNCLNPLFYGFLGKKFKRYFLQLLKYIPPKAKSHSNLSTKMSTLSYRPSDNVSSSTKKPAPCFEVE

Vasopressin V1a receptor = Vasopressin V1a receptor (Homo sapiens, UniProt P37288); experiment: Displacement of [3H]AVP from human recombinant V1a receptor at 10 uM after 60 mins by scintillation counting analysis relative to control
Chain of Vasopressin V1a receptor (P37288 whole entry, looked up, the tested form may be a part): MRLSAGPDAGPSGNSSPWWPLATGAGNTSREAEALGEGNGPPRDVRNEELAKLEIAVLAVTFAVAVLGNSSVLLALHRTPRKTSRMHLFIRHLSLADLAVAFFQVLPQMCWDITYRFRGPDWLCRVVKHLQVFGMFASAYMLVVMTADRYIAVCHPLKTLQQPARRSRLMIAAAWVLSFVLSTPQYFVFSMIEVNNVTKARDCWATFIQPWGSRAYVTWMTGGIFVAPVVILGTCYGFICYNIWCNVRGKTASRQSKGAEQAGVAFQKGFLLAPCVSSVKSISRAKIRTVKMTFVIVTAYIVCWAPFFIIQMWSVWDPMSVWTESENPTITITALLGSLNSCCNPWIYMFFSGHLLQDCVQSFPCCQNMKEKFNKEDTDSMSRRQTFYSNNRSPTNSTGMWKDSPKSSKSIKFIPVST

[11] = biological target: T1, Nuclear receptor ROR-beta (Homo sapiens, UniProt Q92753); experiment: Inverse agonist activity at human GAL4 DBD-fused RORbeta LBD (201 to 452 residues) expressed in HEK293T cells assessed as reduction in ROR mediated transcriptional activity after 24 hrs by dual glo luciferase reporter gene assay; assay type: cell-based
T1 sequence (Q92753 whole entry): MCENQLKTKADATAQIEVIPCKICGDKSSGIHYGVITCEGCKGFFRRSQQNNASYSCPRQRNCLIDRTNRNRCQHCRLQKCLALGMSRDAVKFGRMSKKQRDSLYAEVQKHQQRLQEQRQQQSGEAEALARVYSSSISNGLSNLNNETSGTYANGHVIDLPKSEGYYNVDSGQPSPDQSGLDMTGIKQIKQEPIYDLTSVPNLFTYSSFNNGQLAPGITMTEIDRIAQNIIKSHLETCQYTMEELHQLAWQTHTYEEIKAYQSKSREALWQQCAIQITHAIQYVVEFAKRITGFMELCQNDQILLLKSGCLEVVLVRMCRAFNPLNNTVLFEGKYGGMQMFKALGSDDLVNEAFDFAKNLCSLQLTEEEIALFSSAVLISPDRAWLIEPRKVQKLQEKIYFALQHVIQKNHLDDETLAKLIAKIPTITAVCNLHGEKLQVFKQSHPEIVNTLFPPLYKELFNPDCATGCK

[12] = biological target: Cyclin-dependent kinase 1/cyclin B1 (Homo sapiens) (UniProt P06493+P14635); experiment: Inhibition of recombinant full length His-tagged human CDK1/Cyclin B expressed in baculovirus expression system at 10 uM in presence of ATP relative to control
D(1A) dopamine receptor = D(1A) dopamine receptor (Homo sapiens, UniProt P21728); experiment: Displacement of [3H]-SCH 23390 from human recombinant dopamine D1 receptor after 60 mins by scintillation counting analysis
Chain of D(1A) dopamine receptor (P21728 whole entry): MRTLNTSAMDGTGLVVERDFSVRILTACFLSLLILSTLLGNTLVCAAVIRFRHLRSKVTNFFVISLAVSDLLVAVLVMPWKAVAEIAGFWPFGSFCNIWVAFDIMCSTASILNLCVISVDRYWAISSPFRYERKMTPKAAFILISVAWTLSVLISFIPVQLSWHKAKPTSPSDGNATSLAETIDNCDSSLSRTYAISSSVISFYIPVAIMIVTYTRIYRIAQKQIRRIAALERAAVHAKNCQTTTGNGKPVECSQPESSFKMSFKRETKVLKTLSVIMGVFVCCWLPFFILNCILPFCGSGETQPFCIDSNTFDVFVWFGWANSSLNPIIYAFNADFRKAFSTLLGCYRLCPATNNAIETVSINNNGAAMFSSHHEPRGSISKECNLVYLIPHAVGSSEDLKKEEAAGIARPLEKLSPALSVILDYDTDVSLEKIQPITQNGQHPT

[13] = biological target: 5-hydroxytryptamine receptor 6 (Homo sapiens, UniProt P50406); experiment: Displacement of [3H]LSD from human recombinant 5-HT6 receptor at 10 uM after 120 mins by scintillation counting analysis relative to control
Chain of 5-hydroxytryptamine receptor 6 (P50406 whole entry, the tested form may be a part): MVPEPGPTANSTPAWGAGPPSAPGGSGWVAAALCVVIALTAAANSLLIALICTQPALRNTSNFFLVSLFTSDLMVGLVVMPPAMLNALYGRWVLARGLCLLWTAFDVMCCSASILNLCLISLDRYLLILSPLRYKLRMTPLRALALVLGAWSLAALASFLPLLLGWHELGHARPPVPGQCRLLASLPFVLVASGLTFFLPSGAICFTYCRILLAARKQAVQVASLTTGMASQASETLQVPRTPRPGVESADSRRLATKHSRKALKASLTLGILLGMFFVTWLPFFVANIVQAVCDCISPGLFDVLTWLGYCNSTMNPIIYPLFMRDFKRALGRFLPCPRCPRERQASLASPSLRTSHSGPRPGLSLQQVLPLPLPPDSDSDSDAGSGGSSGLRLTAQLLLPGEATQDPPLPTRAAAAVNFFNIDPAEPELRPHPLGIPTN

PXR (NR1I2) = biological target: T2, PXR (NR1I2) (Homo sapiens, UniProt O75469); experiment: […] at PXR LBD (unknown origin) expressed in HEK293 cells […] at 10 uM after 16 hrs by luciferase reporter gene assay relative to rifampicin; assay type: ADME, cell-based; details: HEK293 cells expressing PXR LBD, read-out: Efficacy
T2 sequence (O75469 whole entry): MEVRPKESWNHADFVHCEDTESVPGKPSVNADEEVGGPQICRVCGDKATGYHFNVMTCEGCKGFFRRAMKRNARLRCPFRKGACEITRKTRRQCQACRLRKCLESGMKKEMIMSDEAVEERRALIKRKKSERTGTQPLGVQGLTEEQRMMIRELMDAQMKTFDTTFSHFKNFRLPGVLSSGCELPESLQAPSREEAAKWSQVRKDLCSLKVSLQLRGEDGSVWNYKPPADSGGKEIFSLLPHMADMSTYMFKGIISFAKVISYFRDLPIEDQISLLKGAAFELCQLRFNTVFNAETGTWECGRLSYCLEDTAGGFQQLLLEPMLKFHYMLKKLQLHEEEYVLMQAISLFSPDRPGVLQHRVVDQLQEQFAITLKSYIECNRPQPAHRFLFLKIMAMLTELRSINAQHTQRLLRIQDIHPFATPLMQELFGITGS

[14] = biological target: 5-hydroxytryptamine receptor 2A (Homo sapiens, UniProt P28223); experiment: Displacement of [3H]ketanserin human recombinant 5-HT2A receptor at 10 uM after 60 mins by scintillation counting analysis relative to control
[15] = biological target: Glycogen synthase kinase-3 alpha (Homo sapiens) (UniProt P49840); experiment: Inhibition of GSK3alpha (unknown origin) at 10 uM in presence of ATP relative to control
Chain of Glycogen synthase kinase-3 alpha (Homo sapiens) (P49840 2-483 limits assumed): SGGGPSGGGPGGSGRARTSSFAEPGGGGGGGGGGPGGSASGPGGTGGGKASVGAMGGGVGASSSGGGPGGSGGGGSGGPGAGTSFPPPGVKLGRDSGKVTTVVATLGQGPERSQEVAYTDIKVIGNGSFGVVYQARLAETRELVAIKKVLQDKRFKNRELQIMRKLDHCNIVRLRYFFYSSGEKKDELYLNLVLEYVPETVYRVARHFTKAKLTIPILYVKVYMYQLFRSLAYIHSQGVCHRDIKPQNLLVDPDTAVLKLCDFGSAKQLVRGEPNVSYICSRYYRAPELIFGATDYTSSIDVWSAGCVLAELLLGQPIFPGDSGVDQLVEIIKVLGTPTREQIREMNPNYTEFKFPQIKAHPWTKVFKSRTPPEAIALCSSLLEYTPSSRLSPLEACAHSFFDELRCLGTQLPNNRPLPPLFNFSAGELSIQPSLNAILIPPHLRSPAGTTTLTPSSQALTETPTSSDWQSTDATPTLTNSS

Chain of Histamine H1 receptor (P35367 whole entry): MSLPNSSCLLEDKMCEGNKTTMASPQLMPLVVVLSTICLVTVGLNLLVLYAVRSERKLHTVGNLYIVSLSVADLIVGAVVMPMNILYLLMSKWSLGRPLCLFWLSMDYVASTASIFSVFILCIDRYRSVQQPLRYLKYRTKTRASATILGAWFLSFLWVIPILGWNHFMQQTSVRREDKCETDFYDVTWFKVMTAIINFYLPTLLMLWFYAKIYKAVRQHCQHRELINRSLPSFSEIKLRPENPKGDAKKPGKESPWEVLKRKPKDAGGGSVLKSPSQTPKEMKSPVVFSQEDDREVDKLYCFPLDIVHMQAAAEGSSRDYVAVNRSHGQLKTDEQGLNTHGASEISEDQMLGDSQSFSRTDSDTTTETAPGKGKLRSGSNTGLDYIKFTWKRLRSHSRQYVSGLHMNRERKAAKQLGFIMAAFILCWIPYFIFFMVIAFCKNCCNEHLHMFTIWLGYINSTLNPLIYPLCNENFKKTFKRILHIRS

With `CC(C)(C)NS(=O)(=O)c1ccc(-c2sc(C(=O)N[C@H]3C[C@H](C(=O)O)C3)nc2CC2CCCCC2)c2ccccc12` as the molecule, how does the inhibition (Histamine H1 receptor) read?
Its inhibition is 11%.

And the inhibition [1]?
Its inhibition is 12%.

And the IC50 [2]?
Its IC50 is 3.2 nM.

What about the IC50 (B2 bradykinin receptor) of the same molecule?
The IC50 was 21 nM.

What about the inhibition [3] of the same molecule?
Its inhibition is less than 10%.

And the inhibition [4]?
Its inhibition is 85%.

What about the IC50 [5] of the same molecule?
The IC50 was 14 nM.

What about the inhibition [6] of the same molecule?
The inhibition was 6%.

What about the inhibition [7] of the same molecule?
Its inhibition is -3%.

And the inhibition [8]?
Its inhibition is less than 10%.

What about the inhibition [9] of the same molecule?
Its inhibition is less than 10%.

And the IC50 [10]?
The IC50 was 0.47 nM.

And the inhibition (Vasopressin V1a receptor)?
Its inhibition is 10%.

What about the IC50 [11] of the same molecule?
The IC50 was 164 nM.

And the inhibition [12]?
Its inhibition is -3%.

What about the IC50 (D(1A) dopamine receptor) of the same molecule?
Its IC50 is 0.21 nM.

What about the inhibition [13] of the same molecule?
Its inhibition is 33%.

And the Emax at 16 h, 10 µM (PXR (NR1I2))?
Its Emax at 16 h, 10 µM is 195%.

And the inhibition [14]?
The inhibition was less than 10%.

What about the inhibition [15] of the same molecule?
Its inhibition is 0%.
